Values joined by “and” are separate entries in the source; they are usually repeats but may differ in a detail not shown here. Equal values may be shown once. Toxic doses and inconclusive results are not listed.
System: B6C3F1 mice, ip Sarcoma M5076, median survival T/C
Assay: NCI In Vivo Anticancer Drug Screen. Data for tumor model Sarcoma M5076 (intraperitoneal) in B6C3F1 mice
Conditions: endpoint: median survival time, higher = longer survival
Description: The antitumor activity of compounds was measured in mice bearing transplantable tumors. Survival or tumor size were measured and the results are expressed as the measurement made in the treated group (T) divided by the measurement made in the vehicle treated control group (C). The tumor model used in this assay is Sarcoma M5076 (intraperitoneal) in B6C3F1 mice

[1] = dose: 125.0 mg/kg/injection, schedule: Q04DX004 (ip), vehicle: saline with Tween-80
[2] = dose: 75.0 mg/kg/injection, schedule: Q04DX004 (ip), vehicle: saline with Tween-80
[3] = dose: 150.0 mg/kg/injection, schedule: Q04DX004 (ip), vehicle: saline with Tween-80
[4] = dose: 50.0 mg/kg/injection, schedule: Q04DX004 (ip), vehicle: Klucel (hydroxypropylcellulose) (HPC)
[5] = dose: 100.0 mg/kg/injection, schedule: Q04DX004 (ip), vehicle: Klucel (hydroxypropylcellulose) (HPC)
[6] = dose: 200.0 mg/kg/injection, schedule: Q04DX004 (ip), vehicle: Klucel (hydroxypropylcellulose) (HPC)
[7] = dose: 400.0 mg/kg/injection, schedule: Q04DX004 (ip), vehicle: Klucel (hydroxypropylcellulose) (HPC)

## O=C1CN2CCN3CC(=O)NC(=O)[C@H]3[C@@H]2C(=O)N1
dose: 31.0 mg/kg/injection, schedule: Q04DX004 (ip), vehicle: saline with Tween-80
  T/C: 93 % of control
dose: 62.0 mg/kg/injection, schedule: Q04DX004 (ip), vehicle: saline with Tween-80
  T/C: 94 % of control
[1]
  T/C: 93 % of control
dose: 250.0 mg/kg/injection, schedule: Q04DX004 (ip), vehicle: saline with Tween-80
  T/C: 100 % of control
dose: 500.0 mg/kg/injection, schedule: Q04DX004 (ip), vehicle: saline with Tween-80
  T/C: 98 % of control

## Cc1cc2c(=O)cc(-c3ccccc3)oc2c(C(=O)O)c1C
dose: 31.25 mg/kg/injection, schedule: Q04DX004 (ip), vehicle: saline with Tween-80
  T/C: 98 % of control
dose: 62.5 mg/kg/injection, schedule: Q04DX004 (ip), vehicle: saline with Tween-80
  T/C: 93 % of control
[1]
  T/C: 113 % of control

## CC(C)CCC(=O)c1ccoc1
dose: 0.25 mg/kg/injection, schedule: Q03HX012 (ip), vehicle: saline with Tween-80
  T/C: 96 % of control
dose: 0.5 mg/kg/injection, schedule: Q03HX012 (ip), vehicle: saline with Tween-80
  T/C: 96 % of control
dose: 1.0 mg/kg/injection, schedule: Q03HX012 (ip), vehicle: saline with Tween-80
  T/C: 90 % of control
dose: 2.0 mg/kg/injection, schedule: Q03HX012 (ip), vehicle: saline with Tween-80
  T/C: 99 % of control

## CC1(O)C=CC(=O)C=C1
dose: 12.5 mg/kg/injection, schedule: Q04DX004 (ip), vehicle: water
  T/C: 104 % of control
dose: 25.0 mg/kg/injection, schedule: Q04DX004 (ip), vehicle: water
  T/C: 102 % of control and 113 % of control
dose: 50.0 mg/kg/injection, schedule: Q04DX004 (ip), vehicle: water
  T/C: 109 % of control and 114 % of control

## O=c1[nH]cc(F)c(=O)[nH]1
dose: 12.5 mg/kg/injection, schedule: Q04DX004 (ip), vehicle: saline
  T/C: 104 % of control and 122 % of control
dose: 25.0 mg/kg/injection, schedule: Q04DX004 (ip), vehicle: saline
  T/C: 111 % of control and 120 % of control

## [NH-]C(CCC(N)=O)C(=O)O.[NH-]C(CCC(N)=O)C(=O)O.[Zn+2] (stereo not given)
dose: 12.5 mg/kg/injection, schedule: Q04DX004 (ip), vehicle: saline with Tween-80
  T/C: 103 % of control
dose: 25.0 mg/kg/injection, schedule: Q04DX004 (ip), vehicle: saline with Tween-80
  T/C: 98 % of control
dose: 50.0 mg/kg/injection, schedule: Q04DX004 (ip), vehicle: saline with Tween-80
  T/C: 96 % of control

## COc1ccc(Cl)c2c1[nH]c1nc3nc4cc(Cl)ccc4n3nc12
[2]
  T/C: 91 % of control
[3]
  T/C: 90 % of control

## [N-]=[N+]=NCc1cnnn1C1OC(CO)C(O)C1O (stereo not given)
dose: 37.5 mg/kg/injection, schedule: Q04DX004 (ip), vehicle: saline
  T/C: 104 % of control
dose: 75.0 mg/kg/injection, schedule: Q04DX004 (ip), vehicle: saline
  T/C: 103 % of control
dose: 150.0 mg/kg/injection, schedule: Q04DX004 (ip), vehicle: saline
  T/C: 104 % of control
dose: 300.0 mg/kg/injection, schedule: Q04DX004 (ip), vehicle: saline
  T/C: 107 % of control
dose: 600.0 mg/kg/injection, schedule: Q04DX004 (ip), vehicle: saline
  T/C: 103 % of control

## CC(=O)/C(=C\c1ccc(/C=C(\C(C)=O)C(=O)CCN(C)C)cc1)C(=O)CCN(C)C
dose: 400.0 mg/kg/injection, schedule: Q04DX004 (ip), vehicle: saline with Tween-80
  T/C: 92 % of control

## CN1CCN(c2ccc3nc(-c4ccc5nc(-c6ccc(O)cc6)[nH]c5c4)[nH]c3c2)CC1
dose: 28.0 mg/kg/injection, schedule: Q04DX004 (ip), vehicle: saline
  T/C: 96 % of control
dose: 56.0 mg/kg/injection, schedule: Q04DX004 (ip), vehicle: saline
  T/C: 92 % of control
dose: 112.0 mg/kg/injection, schedule: Q04DX004 (ip), vehicle: saline
  T/C: 100 % of control
dose: 225.0 mg/kg/injection, schedule: Q04DX004 (ip), vehicle: saline
  T/C: 86 % of control

## CCc1nc(N)nc(N)c1-c1ccc(Cl)c(N=[N+]=[N-])c1
dose: 8.37 mg/kg/injection, schedule: Q04DX004 (ip), vehicle: water
  T/C: 107 % of control
dose: 16.75 mg/kg/injection, schedule: Q04DX004 (ip), vehicle: water
  T/C: 108 % of control
dose: 33.5 mg/kg/injection, schedule: Q04DX004 (ip), vehicle: distilled water + Tween-80
  T/C: 102 % of control
dose: 33.5 mg/kg/injection, schedule: Q04DX004 (ip), vehicle: water
  T/C: 119 % of control
dose: 67.0 mg/kg/injection, schedule: Q04DX004 (ip), vehicle: distilled water + Tween-80
  T/C: 109 % of control
dose: 134.0 mg/kg/injection, schedule: Q04DX004 (ip), vehicle: distilled water + Tween-80
  T/C: 102 % of control
dose: 536.0 mg/kg/injection, schedule: Q04DX004 (ip), vehicle: distilled water + Tween-80
  T/C: 174 % of control

## CN1C(=O)OC(c2ccc(Cl)cc2)C1=O (stereo not given)
[4]
  T/C: 92 % of control
[5]
  T/C: 93 % of control
[6]
  T/C: 94 % of control
[7]
  T/C: 97 % of control

## CC1=C[P+](c2ccccc2)(c2ccccc2)C=C(c2ccccc2)O1
dose: 1.25 mg/kg/injection, schedule: Q04DX004 (ip), vehicle: saline + alcohol
  T/C: 110 % of control
dose: 5.0 mg/kg/injection, schedule: Q04DX004 (ip), vehicle: saline + alcohol
  T/C: 110 % of control
dose: 10.0 mg/kg/injection, schedule: Q04DX004 (ip), vehicle: saline + alcohol
  T/C: 117 % of control

## CC(=O)Nc1ccc(O)c(O)c1
[2]
  T/C: 107 % of control
[3]
  T/C: 113 % of control
dose: 300.0 mg/kg/injection, schedule: Q04DX004 (ip), vehicle: saline with Tween-80
  T/C: 105 % of control
dose: 600.0 mg/kg/injection, schedule: Q04DX004 (ip), vehicle: saline with Tween-80
  T/C: 101 % of control
dose: 1200.0 mg/kg/injection, schedule: Q04DX004 (ip), vehicle: saline with Tween-80
  T/C: 104 % of control

## CC1OC(O[C@H]2/C=C/C=C/C=C/C=C/C=C/C=C/C=C/[C@H](C)[C@@H](O)[C@@H](C)[C@H](C)OC(=O)C[C@H](O)C[C@H](O)CC[C@@H](O)[C@H](O)C[C@H](O)C[C@]3(O)C[C@H](O)[C@@H](C(=O)O)[C@H](C2)O3)C(O)C(N)C1O (stereo not given in full)
dose: 3.12 mg/kg/injection, schedule: Q04DX004 (ip), vehicle: suspension in saline
  T/C: 97 % of control
dose: 6.25 mg/kg/injection, schedule: Q04DX004 (ip), vehicle: suspension in saline
  T/C: 105 % of control
dose: 12.5 mg/kg/injection, schedule: Q04DX004 (ip), vehicle: suspension in saline
  T/C: 100 % of control and 101 % of control
dose: 25.0 mg/kg/injection, schedule: Q04DX004 (ip), vehicle: suspension in saline
  T/C: 100 % of control and 109 % of control
dose: 50.0 mg/kg/injection, schedule: Q04DX004 (ip), vehicle: suspension in saline
  T/C: 98 % of control and 107 % of control

## C[C@@]1(CO)[C@H](O)CC[C@@]2(C)[C@H]1CC[C@H]1C[C@@H]3C[C@@]12CC[C@@]3(O)COC(=O)CN
dose: 7.2 mg/kg/injection, schedule: Q03HX027 (ip), vehicle: saline + alcohol
  T/C: 116 % of control
dose: 10.0 mg/kg/injection, schedule: Q03HX027 (ip), vehicle: saline + alcohol
  T/C: 121 % of control
dose: 12.0 mg/kg/injection, schedule: Q03HX027 (ip), vehicle: saline + alcohol
  T/C: 116 % of control
dose: 18.8 mg/kg/injection, schedule: Q04DX004 (ip), vehicle: saline + alcohol
  T/C: 109 % of control
dose: 20.0 mg/kg/injection, schedule: Q03HX027 (ip), vehicle: saline + alcohol
  T/C: 157 % of control
dose: 37.5 mg/kg/injection, schedule: Q04DX004 (ip), vehicle: saline + alcohol
  T/C: 104 % of control
dose: 55.6 mg/kg/injection, schedule: Q03HX027 (ip), vehicle: saline + alcohol
  T/C: 156 % of control
dose: 75.0 mg/kg/injection, schedule: Q04DX004 (ip), vehicle: saline + alcohol
  T/C: 102 % of control
dose: 120.0 mg/kg/injection, schedule: Q01DX009 (ip), vehicle: saline + alcohol
  T/C: 110 % of control

## O=C1CSC(c2cccs2)N1c1nncs1 (stereo not given)
[4]
  T/C: 102 % of control and 111 % of control
[5]
  T/C: 98 % of control and 106 % of control
[6]
  T/C: 98 % of control and 106 % of control
[7]
  T/C: 111 % of control
dose: 800.0 mg/kg/injection, schedule: Q04DX004 (ip), vehicle: Klucel (hydroxypropylcellulose) (HPC)
  T/C: 122 % of control

## O=C(Nc1ccccc1)C1C(=O)C(=O)N(c2ccccc2)C1=O (stereo not given)
dose: 25.0 mg/kg/injection, schedule: Q04DX004 (ip), vehicle: Klucel (hydroxypropylcellulose) (HPC)
  T/C: 99 % of control
[4]
  T/C: 90 % of control
[5]
  T/C: 92 % of control
[6]
  T/C: 95 % of control
[7]
  T/C: 95 % of control

Reference: PubChem BioAssay AID292 (DTP/NCI, 2004)
